The target of data set [1] is T1, DNA topoisomerase 1 (Homo sapiens) (UniProt P11387).
T1 sequence (whole entry): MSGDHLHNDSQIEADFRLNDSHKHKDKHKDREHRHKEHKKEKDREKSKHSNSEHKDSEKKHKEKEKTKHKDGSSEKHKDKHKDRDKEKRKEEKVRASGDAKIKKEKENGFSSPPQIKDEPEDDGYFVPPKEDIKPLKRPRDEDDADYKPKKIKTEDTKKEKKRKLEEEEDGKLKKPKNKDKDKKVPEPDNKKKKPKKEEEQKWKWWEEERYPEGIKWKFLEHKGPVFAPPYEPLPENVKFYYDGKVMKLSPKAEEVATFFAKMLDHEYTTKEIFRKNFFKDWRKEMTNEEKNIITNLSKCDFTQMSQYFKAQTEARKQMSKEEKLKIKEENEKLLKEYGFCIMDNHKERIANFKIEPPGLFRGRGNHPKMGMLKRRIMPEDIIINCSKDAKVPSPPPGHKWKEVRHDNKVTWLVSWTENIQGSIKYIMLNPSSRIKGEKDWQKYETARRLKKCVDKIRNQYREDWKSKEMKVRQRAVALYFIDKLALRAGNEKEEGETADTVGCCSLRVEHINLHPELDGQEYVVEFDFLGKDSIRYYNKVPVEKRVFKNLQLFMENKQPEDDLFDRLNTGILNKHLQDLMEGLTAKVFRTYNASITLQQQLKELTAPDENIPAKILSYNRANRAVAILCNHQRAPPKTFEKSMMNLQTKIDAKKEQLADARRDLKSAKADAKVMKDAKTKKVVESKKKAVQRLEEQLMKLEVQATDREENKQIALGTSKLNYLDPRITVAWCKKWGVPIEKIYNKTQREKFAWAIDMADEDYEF
The data set is described as follows: Inhibition of topoisomerase 1 (unknown origin) mediated DNA relaxation at 20 uM by gel electrophoresis assay.

Data set [2] concerns DNA. The data set is described as follows: Induction of Escherichia coli supercoiled circular pBR322 DNA cleavage at 20 to 100 uM by gel electrophoresis mobility shift assay. The format is nucleic-acid assay.
Data set [3] concerns T-24. The experiment in a line: Induction of apoptosis in human T24 cells assessed as live cells at 8.26 uM by AnnexinV/propidium iodide staining based flow cytometry (reference value: 99.1%). It counts as functional. For orientation: In flow cytometry, cells or beads pass a laser one at a time.
The test system of data set [4] is T-24. The experiment in a line: Induction of apoptosis in human T24 cells assessed as […] of Bax expression at 2 to 8 uM by Western blot analysis. The format is functional, cell-based.
Data set [5] is described as follows: Toxicity in mouse xenografted with human HepG2 cells assessed as adverse effect at 5 to 15 mg/kg. The format is organism-based. Conditions: in vivo. A general note: Xenograft models place foreign cells or tissue in a host animal.
Data set [6] relates to T-24. The data set is described as follows: Induction of apoptosis in human T24 cells assessed as necrotic cells at 2.06 uM by AnnexinV/propidium iodide staining based flow cytometry (reference value: 0.1%). It counts as functional.
Data set [7] relates to SMMC-7721. The data set is described as follows: Antiproliferative activity against human SMMC7721 cells assessed as cell growth inhibition measured after 48 hrs by MTT assay. The format is functional, cell-based. Conditions: SMMC-7721, 48 h. Background: Tetrazolium assays rely on reduction of a dye to a coloured formazan, in cell work by metabolically active cells.
The test system of data set [8] is T-24. The experiment in a line: Cell cycle arrest in human T24 cells assessed as accumulation at S phase at 2.06 uM measured after 24 hrs by propidium iodide staining based fluorescence analysis (reference value: 23.67%). It counts as functional.
In data set [9] the test system is T-24. The data set is described as follows: Induction of apoptosis in human T24 cells assessed as early apoptotic cells at 4.13 uM by AnnexinV/propidium iodide staining based flow cytometry (reference value: 0.7%). It counts as functional.
For data set [10], the system named is T-24. The experiment in a line: Induction of apoptosis in human T24 cells assessed as early apoptotic cells at 8.26 uM by AnnexinV/propidium iodide staining based flow cytometry (reference value: 0.7%). It counts as functional.
Data set [11] deals with T-24. The data set is described as follows: Cell cycle arrest in human T24 cells assessed as accumulation at S phase at 8.26 uM measured after 24 hrs by propidium iodide staining based fluorescence analysis (reference value: 23.67%). It counts as functional.
Data set [12] deals with T-24. The experiment in a line: Anticancer activity against human T24 cells xenografted in mouse assessed as tumor inhibition rate at 15 mg/kg measured at day 14 relative to control. The format is functional. Conditions: T-24, 336 h.
Data set [13] concerns T-24. The experiment in a line: Induction of apoptosis in human T24 cells by AnnexinV/propidium iodide staining based flow cytometry. The format is functional, cell-based.
Data set [14] relates to DNA. The experiment in a line: Induction of DNA damage in human T24 cells assessed as inhibition of DNA replication at 10 uM measured after 24 hrs by EdU incorporation assay. The format is cell-based. Conditions: T-24.
The subject of data set [15] is T-24. The experiment in a line: Cell cycle arrest in human T24 cells assessed as accumulation at G1 phase at 4.13 uM measured after 24 hrs by propidium iodide staining based fluorescence analysis (reference value: 66.18%). It counts as functional.

Calls of active or inactive are those of the source. No cut-off for these calls is given here.

Turning to `CNCCN1C(=O)c2cccc3cc([N+](=O)[O-])cc(c23)C1=O`, the inhibition result in data set [1] was “Active”. Further, the result in data set [2] was inactive. The Activity in data set [3] is listed as 76.6%; in data set [5], “Non-Toxic”; in data set [6], 0.2%; in [8], 19.81%; in [9] it was 5.4%; in data set [10], 23.4%. In addition, the results for the Activity in data set [11], in [13] and in [15] were 7.71%, “Dose-dependent effect” and 9.9%, respectively. Also, the outcome in [4] and in [14] was Active. In addition, the IC50 in data set [7] worked out at 14 µM. Also, in [12], the inhibition in vivo at 15 mg/kg was found to be 58.7%.

The term IC50 denotes the concentration that gives 50% inhibition. For orientation: inhibition in vivo means the relative decrease from the control value, in per cent.

Values taken from ChEMBL document CHEMBL4627310, “Design, synthesis and biological evaluation of 3-nitro-1,8-naphthalimides as potential antitumor agents” (Bioorg Med Chem Lett, 2020).
